Key:
nauplius stage larvae = experiment: Toxicity Assay for Nauplius Larvae (naupliar toxicity); details: for Naupliar Toxicity (LD50): lethal dose killing 50 percent of naupliar stage larvae, 100 kDa-filtered seawater, 28° C., approx. 15 h light and 9 h darkness, 1440 min; for LD50 compared with TBT, digoxigenin, and digoxin: nauplius stage larvae, comparison with known antifouling agents
Protocol: (§1) Adult individuals of the acorn barnacle Balanus amphritrite Darwin were collected from the Duke University Marine Laboratory seawall in Beaufort, N.C. Collected specimens were crushed, and the nauplius stage larvae released therefrom were cultured to cyprid stage for cyprid-state assays according to the methods of Rittschof et al., J. Exp. Mar. Biol. Ecol. 82:131-146 (1984).
Toxicity assays were conducted by adding nauplius stage larvae to Falcon 50×9 mm polystyrene Petri dishes containing 5 ml of 100 kDa-filteredseawater. Experimental dishes received a dose of bufalin, cinobufatalin, TBT, digoxigenin, or digoxin. Doses receiving no test compound served as negative controls. The dishes were incubated at 28° C. under light for approximately 15 hours and in darkness for approximately 9 hours.
After incubation, the dishes were examined under a dissecting microscope to determine whether the larvae were alive or dead. […] The number of dead and living larvae was counted and recorded.
Data for toxicity assays performed on nauplius stage larvae is summarized in Table 1, which lists the lethal dose for each compound required to kill 50 percent of naupliar stage larvae in a sample (LD50).

cyprid stage larvae = assay type: in vivo, acorn barnacle Balanus amphritrite Darwin; details: for EC50 compared with TBT, digoxigenin, and digoxin: cyprid stage larvae settlement, comparison in words; for Cyprid Settlement (ED50): dose which prevents settlement of 50 percent of cyprid stage larvae (EC50), three-day old cyprids, 100 kDa-filtered seawater (approx. 35 ppt), 28° C., approx. 15 h light and 9 h darkness
Protocol: as §1
Settlement assays were performed as previously described by Rittschof et al., J. Chem. Ecol. 11:551-563 (1985). Three-day old cyprid larvae were added to Falcon 50×9 mm polystyrene petri dishes. Each dish contained 5 ml of 100 kDa-filtered seawater (approximately 35 ppt salinity). […] Doses were varied in an effort to determine inhibition levels. Dishes receiving no test compound served as negative controls. The number of replicate dishes used in each assay ranged from 2 to 4, depending on larval availability. The dishes were incubated at 28° C. under light for approximately 15 hours and in darkness for approximately 9 hours.
After incubation, the dishes were examined under a dissecting microscope to determine whether larvae were still alive. The larvae were then euthanized by the addition of several drops of 10 percent formalin. The numbers of attached and unattached larvae were then counted.
Settlement was calculated as the percentage of total larvae attached to the dish. Differences in the rate of settlement for test dishes versus controls were assessed for statistical significance through the use of a G test for independence described by Sokal et al., Biometry (Freeman & Co., San Francisco 1981).

SMILES | Naupliar Toxicity (LD50) (nauplius stage larvae) | LD50 compared with TBT, digoxigenin, and digoxin (nauplius stage larvae) | EC50 compared with TBT, digoxigenin, and digoxin (cyprid stage larvae) | Cyprid Settlement (ED50) (cyprid stage larvae)
C[C@]12CC[C@H](O)C[C@H]1CC[C@@H]1[C@@H]2CC[C@]2(C)[C@@H](c3ccc(=O)oc3)CC[C@]12O [Bufalin, 3,14-dihydroxybufa-20,22 dienolide] | 27 ng/L | much lower LD50 values than known antifouling agents TBT, digoxigenin, and digoxin | much lower EC50 values than TBT, digoxigenin, and digoxin | 19 ng/L
CC(=O)O[C@H]1[C@H]2O[C@]23[C@@H]2CC[C@@H]4C[C@@H](O)CC[C@]4(C)[C@H]2CC[C@]3(C)[C@H]1c1ccc(=O)oc1 [Cinobufagin, 16-(acetyloxy)-14,15-epoxy-3 hydroxybufa-20,22-enolide] | 37 ng/L | much lower LD50 values than known antifouling agents TBT, digoxigenin, and digoxin | much lower EC50 values than TBT, digoxigenin, and digoxin | 162 ng/L
CC(=O)O[C@H]1[C@H]2O[C@]23[C@@H]2CC[C@]4(O)C[C@@H](O)CC[C@]4(C)[C@H]2CC[C@]3(C)[C@H]1c1ccc(=O)oc1 [Cinobufotalin, 16-(acetyloxy)-14,15-epoxy-3,5dihydroxybufa-20,22-enolide] | 837 ng/L | much lower LD50 values than known antifouling agents TBT, digoxigenin, and digoxin | much lower EC50 values than TBT, digoxigenin, and digoxin | 2,600 ng/L
C[C@]12CC[C@H](O)C[C@H]1CC[C@@H]1[C@@H]2C[C@@H](O)[C@]2(C)[C@@H](C3=CC(=O)OC3)CC[C@]12O [Digoxigenin, reference compound] | 3,720 ng/L |  |  | > 50,000 ng/L
C[C@H]1O[C@@H](O[C@H]2[C@@H](O)C[C@H](O[C@H]3[C@@H](O)C[C@H](O[C@H]4CC[C@@]5(C)[C@H](CC[C@@H]6[C@@H]5C[C@@H](O)[C@]5(C)[C@@H](C7=CC(=O)OC7)CC[C@]65O)C4)O[C@@H]3C)O[C@@H]2C)C[C@H](O)[C@@H]1O [Digoxin, reference compound] | 5,450 ng/L |  |  | 6,300 ng/L
CCC[CH2][Sn]([Cl])([CH2]CCC)[CH2]CCC [TBT Chloride, tri-n-butyl tin chloride, reference compound] | ~3,400 ng/L |  |  | 

From patent publication US5314932A, “Antifouling coating and method for using same” (priority 1993, dated 1994)
